Measurements from patent US20100286400A1, “CRYSTALLINE SOLVATED FORMS OF (R)-2-[[[3-METHYL-4-(2,2,2-TRIFLUOROETHOXY)-2-PYRIDINYL]METHYL]SULFINYL]-1H-BENZIMIDAZOLE” (TAKEDA PHARMACEUTICAL COMPANY LIMITED, priority 2007, published 2010).

Tests used:
Type in all cases: physicochemical
[1] = Solubility of crystal forms as a suspension of powder in water (HPLC and XRPD)
Experimental: The solubilities of Forms I, II, III, IV and VI of (R)-lansoprazole obtained in the above-mentioned Reference Example 1 and Examples were tested as a suspension of power in water at 25° C. for 5 days. The solid samples of each form were tested as-is by HPLC and XRPD without particle size determination. […] The extent of chemical degradation as a function of time was similar for all forms.

[2] = Relationships among Forms of R(+)-lansoprazole under various conditions
Description: The relationships among Forms of R(+)-lansoprazole were studied under various conditions.

[3] = Interconversion slurries of mixtures of forms in aqueous saturated solutions (XRPD); conditions: slurry in water, ambient, additional time beyond 5 days
Experimental: Mixtures of Forms I, II, III, IV and VI were slurried in aqueous saturated solutions at ambient temperature and up to 40° C. A mixture of Form II and Pattern V material was obtained when the mixture of forms was slurried at ambient temperature for 5 days, despite the absence of Pattern V material as starting material.

## Cc1c(OCC(F)(F)F)ccnc1C[S@@+]([O-])c1nc2ccccc2[nH]1 [Form II, (R)-2-[[[3-methyl-4-(2,2,2-trifluoroethoxy)-2-pyridinyl]methyl]sulfinyl]-1H-benzimidazole]
[1]; suspension in water at 25° C. for 5 days
  chemical degradation over time: chemically degraded over time
[2]; according to Experimental Example 2 and 3, most stable first
  order of stability in transfer (crystal form conversion): Form II, Form VI, Form III, Form IV, and Form V, in that order
[2]; vial purged with nitrogen, heated to 93° C. in an oil bath
  appearance on heating: Sample had turned brown in up to 45 seconds, removed

## Cc1c(OCC(F)(F)F)ccnc1C[S@@+]([O-])c1nc2ccccc2[nH]1 [Form I, (R)-2-[[[3-methyl-4-(2,2,2-trifluoroethoxy)-2-pyridinyl]methyl]sulfinyl]-1H-benzimidazole]
[1]; after 5 days as a suspension in water at 25° C.
  XRPD of residual solids after the solubility study: a mixture consisting of Form I (major component) and Form II

## Cc1c(OCC(F)(F)F)ccnc1C[S@@+]([O-])c1nc2ccccc2[nH]1 [Pattern V, (R)-2-[[[3-methyl-4-(2,2,2-trifluoroethoxy)-2-pyridinyl]methyl]sulfinyl]-1H-benzimidazole]
[3]
  form obtained on additional slurry time: converted to Form II
